Assays:
[1] = system: myelin basic protein (MBP) in the amygdala; assay: Immunohistochemistry of myelin basic protein; assay type: in vivo, rat; conditions: 10 mg/kg IP, single dose, 24 h
Experimental: Immunohistochemistry: The in-life portion of the study was conducted at WuXi Apptec (Cranbury, NJ). Sectioning and staining of brains took place at Neuroscience Associates (NSA, Knoxville, TN). […] Brains were post-fixed in PFA before shipment to NSA for processing and staining. Hemisected brains were mounted, sectioned and stained using standard protocols with myelin-basic protein primary antibody (MBP SMI-99, 1:5000, Biolegend, San Diego, CA) and anti-mouse biotinylated secondary antibody (BA-2001, Vector Laboratories, Newark, CA). Slides were imaged using a Huron Digital Pathology TissueScope LE120 whole slide scanning system. 20× objective was used with a 0.4 μm/pixel resolution.

[2] = biological target: 168 GPCRs (Homo sapiens, UniProt P41968); assay: β-arrestin GPCR screen (PathHunter/GPCRmax), antagonist mode; conditions: GPCR MC3R; Antagonist mode; 10 uM
168 GPCRs (Homo sapiens, UniProt P41968), sequence (P41968 whole entry): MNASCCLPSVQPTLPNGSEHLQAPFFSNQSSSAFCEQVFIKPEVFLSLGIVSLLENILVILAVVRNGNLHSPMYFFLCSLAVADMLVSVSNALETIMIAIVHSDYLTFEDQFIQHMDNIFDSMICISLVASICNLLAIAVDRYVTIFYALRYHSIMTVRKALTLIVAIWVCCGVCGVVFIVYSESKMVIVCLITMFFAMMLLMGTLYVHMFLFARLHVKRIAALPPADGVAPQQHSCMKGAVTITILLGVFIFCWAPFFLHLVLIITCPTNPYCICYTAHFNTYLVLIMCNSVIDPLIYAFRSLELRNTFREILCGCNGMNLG

[3] = biological target: 168 GPCRs (Homo sapiens, UniProt Q96RI0); assay: as above; conditions: F2RL3; Antagonist; 1 uM
168 GPCRs (Homo sapiens, UniProt Q96RI0), sequence (Q96RI0 18-385): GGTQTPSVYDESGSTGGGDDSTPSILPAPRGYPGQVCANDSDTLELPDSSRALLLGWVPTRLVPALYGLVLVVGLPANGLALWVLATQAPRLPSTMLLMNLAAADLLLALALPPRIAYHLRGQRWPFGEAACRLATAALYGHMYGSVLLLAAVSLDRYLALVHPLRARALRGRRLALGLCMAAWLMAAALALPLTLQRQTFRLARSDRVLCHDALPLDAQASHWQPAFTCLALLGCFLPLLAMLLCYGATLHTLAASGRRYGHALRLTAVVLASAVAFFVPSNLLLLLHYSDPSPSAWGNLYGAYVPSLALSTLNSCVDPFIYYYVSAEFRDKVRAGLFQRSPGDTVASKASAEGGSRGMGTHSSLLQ

[4] = biological target: 168 GPCRs (Homo sapiens, UniProt P55085); assay: as above; conditions: GPCR F2RL1; Antagonist mode; 10 uM
168 GPCRs (Homo sapiens, UniProt P55085), sequence (P55085 26-397): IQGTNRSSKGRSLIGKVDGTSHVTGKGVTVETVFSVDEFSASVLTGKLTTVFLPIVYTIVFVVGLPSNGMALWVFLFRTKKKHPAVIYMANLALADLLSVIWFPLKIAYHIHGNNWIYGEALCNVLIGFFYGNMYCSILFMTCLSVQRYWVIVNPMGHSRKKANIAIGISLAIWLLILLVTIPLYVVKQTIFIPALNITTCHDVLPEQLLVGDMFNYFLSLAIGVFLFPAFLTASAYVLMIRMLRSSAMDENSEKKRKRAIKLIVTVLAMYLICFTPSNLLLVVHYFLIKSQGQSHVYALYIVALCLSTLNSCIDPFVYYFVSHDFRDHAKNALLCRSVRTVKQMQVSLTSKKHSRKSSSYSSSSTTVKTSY

[5] = biological target: 168 GPCRs (Homo sapiens, UniProt Q99500); assay: as above; conditions: GPCR EDG3; Antagonist mode; 10 uM
168 GPCRs (Homo sapiens, UniProt Q99500), sequence (Q99500 whole entry): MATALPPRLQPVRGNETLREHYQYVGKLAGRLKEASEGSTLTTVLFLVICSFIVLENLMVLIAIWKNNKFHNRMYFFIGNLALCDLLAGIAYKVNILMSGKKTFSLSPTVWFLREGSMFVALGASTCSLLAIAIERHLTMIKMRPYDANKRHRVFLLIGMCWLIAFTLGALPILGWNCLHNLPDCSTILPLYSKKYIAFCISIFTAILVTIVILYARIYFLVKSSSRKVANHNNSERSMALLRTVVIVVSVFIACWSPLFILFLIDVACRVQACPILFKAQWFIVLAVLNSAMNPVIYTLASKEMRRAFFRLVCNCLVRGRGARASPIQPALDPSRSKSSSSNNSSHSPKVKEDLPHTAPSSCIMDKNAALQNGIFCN

[6] = biological target: 168 GPCRs (Homo sapiens, UniProt P47872); assay: as above; conditions: SCTR; Antagonist; 1 uM
168 GPCRs (Homo sapiens, UniProt P47872), sequence (P47872 23-440): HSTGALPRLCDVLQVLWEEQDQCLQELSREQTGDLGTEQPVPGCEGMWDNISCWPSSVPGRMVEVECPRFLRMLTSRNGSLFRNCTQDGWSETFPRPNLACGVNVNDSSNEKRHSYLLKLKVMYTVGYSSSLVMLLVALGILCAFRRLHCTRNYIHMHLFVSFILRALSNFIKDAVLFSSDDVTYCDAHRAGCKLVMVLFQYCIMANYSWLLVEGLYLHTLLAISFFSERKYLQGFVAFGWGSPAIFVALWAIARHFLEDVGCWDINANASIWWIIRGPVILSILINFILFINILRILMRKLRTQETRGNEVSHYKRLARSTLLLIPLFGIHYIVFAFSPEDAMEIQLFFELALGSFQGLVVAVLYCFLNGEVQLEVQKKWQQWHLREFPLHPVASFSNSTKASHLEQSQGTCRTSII

[7] = biological target: 168 GPCRs (Homo sapiens, UniProt P21462); assay: as above; conditions: FPR1; Antagonist; 1 uM
168 GPCRs (Homo sapiens, UniProt P21462), sequence (P21462 whole entry): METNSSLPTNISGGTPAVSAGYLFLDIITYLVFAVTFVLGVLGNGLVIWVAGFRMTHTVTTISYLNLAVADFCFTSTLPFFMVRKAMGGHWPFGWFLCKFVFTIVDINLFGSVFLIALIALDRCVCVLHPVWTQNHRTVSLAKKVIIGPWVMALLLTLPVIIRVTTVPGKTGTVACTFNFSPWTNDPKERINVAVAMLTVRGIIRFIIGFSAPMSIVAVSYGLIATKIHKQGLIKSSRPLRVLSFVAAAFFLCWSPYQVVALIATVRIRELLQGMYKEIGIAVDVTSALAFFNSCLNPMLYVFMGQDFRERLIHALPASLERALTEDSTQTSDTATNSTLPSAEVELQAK

[8] = system: participants with PTSD; assay: IMPACT-1 open-label study (Part A); assay type: in vivo, human; set-up: reduction in Anxiety Sub-Scale of MADRS: concentration or dose not given beside the values
Experimental: The purpose of this pilot study is to evaluate the safety, tolerability, and efficacy of methylone in adult participants with PTSD. The study is conducted in two parts. Part A is open-label enrolling up to 15 evaluable participants with PTSD. After completion of Part A, enrollment will begin for Part B, which is double-blind, placebo-controlled and enrolling up to 64 evaluable participants with PTSD.
Brief Summary: This is a two-part study to assess methylone for the management of the symptoms of PTSD. Part A is an open-label, non-controlled assessment in up to 15 evaluable participants with PTSD to assess early safety and efficacy and to confirm procedures included in the blinded portion (Part B) of the study. After completion of Part A, enrollment for Part B will begin in up to 64 participants. Part B is identical to Part A with the exception of the inclusion of a placebo arm in Part B.
For each participant in Parts A and B, the study consists of: • Screening Period (Day-28 to Day-4): Informed consent, eligibility assessment, and enrolment of eligible participants. • Baseline/Preparatory Session (Day-3 to Day-1): Baseline assessments, confirmation of eligibility, and a preparatory psychoeducation session leading to enrolment confirmation. • Treatment Period (Day 1 to Day 24): Four weekly dose sessions, with associated remote sessions. The dose sessions last at least 8 hours, or until all effects (physical and psychological) have resolved (whichever is longer). Each dose session is followed by a safety phone call 1 day after dosing and efficacy assessments 2 days after dosing. Each dosing period is video recorded for quality and training purposes. The videos may be reviewed to ensure the Mentor is adhering to the Mentor training. • Follow-Up Period (Day 29 to Day 64): Follow-Up visits for safety and efficacy occur at 1, 2, 3 and 6 weeks post-final study drug administration. In addition, there are Mentor-Led Reflection Sessions 1, 2 and 3 weeks post-final study drug administration. Participants are contacted via telephone on Day 57 (±2 days) for Follow-Up. • Discontinuations: Participants who discontinue prematurely are asked to return for an extra visit to duplicate the 6-week end-of-study (EOS) visit.
Each dose was given as an initial dose, followed by a second dose 90 minutes later. During the dosing session, participants were accompanied by a trained Mentor who provided non-directive support. After the 4-week treatment period, participants attended follow-up visits at 1, 2, 3, and 6 weeks following the last dose. Safety was assessed via standard measures including adverse events. PTSD symptoms were assessed via Clinician-Administered PTSD Scale for DSM-5 (CAPS-5), depressive symptoms were assessed via Montgomery-Åsberg Depression Rating Scale (MADRS). Anti-anxiety efficacy was evaluated using the Anxiety Sub-Scale of MADRS, namely, questions (Items 3, 4, 5, 6) that address four anxiety items (inner tension, reduced sleep, reduced appetite, concentration difficulties) Changes from baseline were analyzed using a paired t-test p-values.
Methods: The IMPACT-1 study is a multi-center, two-part clinical trial. Part A has completed and was an open-label evaluation involving 14 participants with PTSD. Eligible participants are adults with severe PTSD (CAPS-5 ≥35) who had failed at least 1 prior treatment (pharmacotherapy and/or psychotherapy) for PTSD. […] Throughout each dosing session, participants were provided non-directive psychological support by a trained mental health practitioner. Following the 4-week treatment period, participants were followed for an additional 6 weeks to evaluate the durability of the therapeutic effect. PTSD symptom improvement was evaluated on the CAPS-5. Functioning was assessed via the 3 domains (school/work, family life, social life) of the Sheehan Disability Scale (SDS). Global improvement was measured by the CGI-I. Safety was assessed by monitoring adverse events, vital signs, and C-SSRS. […]

With CNC(C)C(=O)c1ccc2c(c1)OCO2 (centres unmarked) [methylone, 3,4-methylenedioxy-N-methylcathinone] the “MBP level in basolateral and central nuclei of the amygdala vs vehicle” value [1] was “significant reduction in MBP”, the activity at 10 µM [2] was -0.3% and the activity at 1 µM [3] was about -11%. It also gave an activity at 10 µM [4] of -16.2%, an activity at 10 µM [5] of -13.6% and an activity at 1 µM [6] of about 6%. The activity at 1 µM [7] was about -4%, the “decrease in CAPS-5 score” value ([8]; Day 3) was 8.4 points and the “decrease in MADRS score” value ([8]; Day 3) was 8.2 points. For the same compound, the “reduction in Anxiety Sub-Scale of MADRS” value ([8]; Day 3) was 20%, the “reduction in Anxiety Sub-Scale of MADRS” value ([8]; Day 10) was 43% and the “reduction in Anxiety Sub-Scale of MADRS” value ([8]; Day 17) was 50%. For the same compound, the “reduction in Anxiety Sub-Scale of MADRS” value ([8]; Day 24) was 57%, the “reduction in Anxiety Sub-Scale of MADRS” value ([8]; Day 29) was 56% and the “reduction in Anxiety Sub-Scale of MADRS” value ([8]; Day 36) was 66%. For the same compound, the “reduction in Anxiety Sub-Scale of MADRS” value ([8]; Day 43) was 64%, the “SDS Family Life score, mean (SD)” value ([8]; Day 64) was 3.1 (3.45) and the “SDS Mean Overall score, mean (SD)” value ([8]; Day 64) was 3.1 (3.12). For the same compound, the “SDS Social Life score, mean (SD)” value ([8]; Day 64) was 3.2 (3.39), the “SDS Work/School score, mean (SD)” value ([8]; Day 64) was 3.3 (3.78) and the “reduction in Anxiety Sub-Scale of MADRS” value ([8]; Day 64) was 66%. For the same compound, the “PSQI total score change” value ([8]; end of study (6 weeks after the last dose)) was −4.0 points and the “drug-related SAEs” value ([8]; human, in vivo, oral, 4 weeks) was “No drug-related SAEs occurred”.

From patent US20250332139A1, “PS[…] AND THEIR USE FOR TREATING […] AND NE[…] DISORDERS” (Transcend Therapeutics, Inc., priority 2021, published 2025)
